# Test results taken from patent publication EP4744665A1, “COMBINATION OF POLQ INHIBITOR COMPOUND AND ANTI-CANCER THERAPEUTIC AGENT OR RADIOTHERAPY” (Simcere Zaiming Pharmaceutical Co., Ltd., priority 2023, dated 2025).
# Experiments:
# DLD-1 parent cells = experiment: Inhibition of tumor cell proliferation, 7 days, CTG; type: cell-based; conditions: Homo sapiens, DLD-1, 168 h, 7 days incubation
# Procedure: (§1) Brief introduction to experimental principle: After the compound was co-incubated with tumor cells for 7 days, the ATP in viable cells was quantified using the CTG kit from Promega to reflect the effect of the compound on tumor cell proliferation.
# (§2) Experimental methods: DLD-1 parent cells or DLD-1 BRCA2 (-/-) cells were diluted with an RPMI 1640 medium containing 10% FBS and then added to a 96-well plate (90 µL/well), with the number of cells being 600/well or 1200/well, respectively, and incubated overnight in an incubator at 37 °C with 5% CO2. The test compound was diluted to different concentrations with dimethyl sulfoxide (DMSO) and then added to a 96-well plate, such that, in the reaction system, the compound was serially diluted 4-fold from the final concentration of 25 µM. The concentration range of the compound was from 25 µM to 0.0004 µM, and the final concentration of DMSO was 0.25% v/v. After incubation for 7 days, 50 µL/well of CTG was added, and the mixture was incubated at room temperature for 10 min. The luminescence (Lum) signal value was read using an Envision microplate reader, and the inhibition rate and half inhibitory concentration (IC50) were calculated.
# (§3) Inhibition rates were calculated and fitted using XLfit software to give the IC50 of the compound.
# (§4) A Blank well and a DMSO well were set in the experiment. The blank well contained 100 µL of an RPMI Medium 1640 medium containing 10% FBS, and the inhibition rate of the compound on tumor cell growth was considered to be 100% under this condition. For the DMSO well, 0.25% v/v DMSO was added to the cell-containing well, and the inhibition rate of the compound on tumor cell growth was considered to be 0 under this condition. Inhibition rate = 100 × (Lummax−Lumcompound)/(Lummax−Lummin)% [formula] wherein Lummax refers to the luminescence signal value of the well containing cells and 0.25% v/v DMSO, and Lumcompound refers to the luminescence signal value of the well containing the compound and cells. Lummin refers to the luminescence signal value of the well containing the medium and 0.25% v/v DMSO.
# [1] = test system: DLD-1 BRCA2 (-/-) cell line; experiment: as above; type: cell-based; conditions: Homo sapiens, DLD-1, 168 h, 7 days incubation
# Procedure: as §1, §2, §3, §4
# [2] = target: T1, N-terminal active peptide segment of POLQ with ATPase activity (M1-N899) (Homo sapiens, UniProt O75417); experiment: POLQ enzyme activity inhibition experiment (ATPase, NADH oxidation-coupled, OD 340 nm); type: biochemical
# T1 construct: N-terminal active peptide segment of POLQ with ATPase activity (M1-N899)
# T1 sequence (O75417 1-899): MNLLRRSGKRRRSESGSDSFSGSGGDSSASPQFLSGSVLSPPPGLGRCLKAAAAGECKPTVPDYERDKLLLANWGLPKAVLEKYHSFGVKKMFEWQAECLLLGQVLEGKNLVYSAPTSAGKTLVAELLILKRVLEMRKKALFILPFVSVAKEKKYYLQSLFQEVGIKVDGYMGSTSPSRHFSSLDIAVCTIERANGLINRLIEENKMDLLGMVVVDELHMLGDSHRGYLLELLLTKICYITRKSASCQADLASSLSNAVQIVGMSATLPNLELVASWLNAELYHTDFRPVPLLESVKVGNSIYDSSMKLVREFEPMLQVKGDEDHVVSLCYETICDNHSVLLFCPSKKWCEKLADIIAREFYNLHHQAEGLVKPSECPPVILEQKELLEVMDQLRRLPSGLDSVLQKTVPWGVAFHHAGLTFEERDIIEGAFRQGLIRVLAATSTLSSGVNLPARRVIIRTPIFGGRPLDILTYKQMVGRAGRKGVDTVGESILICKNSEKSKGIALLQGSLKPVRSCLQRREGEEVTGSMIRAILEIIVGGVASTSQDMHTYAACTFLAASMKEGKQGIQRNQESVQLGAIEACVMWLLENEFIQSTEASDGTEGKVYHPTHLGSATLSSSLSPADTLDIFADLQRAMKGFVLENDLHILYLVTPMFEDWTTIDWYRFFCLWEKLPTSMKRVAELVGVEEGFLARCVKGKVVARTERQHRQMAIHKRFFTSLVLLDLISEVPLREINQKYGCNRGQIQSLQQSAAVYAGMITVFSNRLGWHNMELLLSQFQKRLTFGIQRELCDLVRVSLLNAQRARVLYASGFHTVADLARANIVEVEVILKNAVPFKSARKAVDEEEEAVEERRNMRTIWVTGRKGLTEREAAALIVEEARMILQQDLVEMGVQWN
# Procedure: Brief introduction to experimental principle: After the N-terminal active peptide segment of POLQ with ATPase activity (M1-N899) is co-incubated with the compound, this peptide segment reacts with substrate dT50 under the action of ATP to generate ADP. The generated ADP then participates in the subsequent NADH oxidation-coupled enzymatic reaction, catalyzing the conversion of NADH to NAD^+. The reduction in the OD value of NADH at 340 nm was measured using the Envision microplate reader from Perkin Elmer to reflect enzyme activity. Experimental instruments: Labcyte Echo 650 pipetting system; Perkin Elmer Envision microplate reader; Eppendorf 5810R centrifuge; Boxun BSD-YX3400 thermostatic shaker.
# Experimental methods: The POLQ enzyme was diluted to 100 nM with a reaction buffer (20 mM Tris HCl (pH 7.80), 80 mM KCl, 10 mM MgCl2, 1 mM DTT, 0.01% w/v bovine serum albumin, 0.01% v/v Tween-20, 5% v/v glycerol). The test compound was diluted to different concentrations with dimethyl sulfoxide (DMSO) using an Echo 650 pipetting system and transferred to a 384-well plate, 20 µL/well of 100 nM POLQ was added, and the mixture was incubated at room temperature for 15 min. A reaction mixture solution was prepared with the concentrations of each component in the reaction mixture solution as follows: 100 µM ATP, 300 nM dT50, 300 µM NADH, 6 mM PEP, 10 U/mL lactate dehydrogenase, and 20 U/mL pyruvate kinase. 20 µL/well of the reaction mixture solution was added to start the enzyme reaction. In the reaction system, the compound was serially diluted 3-fold from the final concentration of 10 µM, covering a concentration range from 10 µM to 0.0005 µM, and the final concentration of DMSO in the system was 0.2% v/v. After the 384-well plate was reacted at room temperature for 20 min, the OD value at 340 nm was read using an Envision microplate reader.
# as §3
# A blank group and a DMSO group were set in the experiment. […]
# MDA-MB-436 = experiment: Combined use with combination drug, matrix study, Bliss Independence model (Cell Titer Glo, 7 days); type: cell-based; conditions: combination with Niraparib (PARP inhibitor)
# Procedure: (§5) DLD-1 colorectal adenocarcinoma cells, DLD-1 BRCA2 (-/-) colorectal adenocarcinoma cells, SHP-77 human small cell lung cancer cells, NCI-H82 human small cell lung cancer cells, LNCAP prostate cancer cells, KURAMOCHI human ovarian cancer cells, A2780 human ovarian cancer cells, and NCI-H23 non-small cell lung cancer cells were cultured in a 1640 medium containing 10% fetal bovine serum. SKOV3 human ovarian cancer cells were cultured in a McCoy's 5A (modified) medium containing 10% fetal bovine serum. OVCAR3 ovarian cancer cells were cultured in a 1640 medium containing 20% fetal bovine serum and 10 µg/mL bovine insulin. MDA-MB-436 breast cancer cells (natural BRCA1 mutation) and A549 non-small cell lung cancer cells were cultured in a DMEM medium containing 10% fetal bovine serum. Capan-1 human pancreatic cancer cells (natural BRCA2 mutation) were cultured in an IMDM medium containing 20% fetal bovine serum. The cells were all cultured at 37 °C with 5% CO2. Cells at the logarithmic growth phase were available for the experiment.
# (§6) 100 µL of the cell medium was added to rows A and H and columns 1 and 12 of a 96-well cell culture plate. Cultured cells were resuspended (adherent cells were digested with trypsin) and counted to give information on cell density and viability. The dilution ratio of the resuspended cells required for inoculating a fixed number of cells into 80 µL of the medium in each culture well was calculated based on the cell density information. After the resuspended cells were diluted with the corresponding medium, 80 µL of the diluted cells were transferred to columns 2-11 of rows B-G of a 96-well cell culture plate using an Eppendorf multi-channel pipette (60 wells in total for each plate). The cell culture plate was incubated overnight in an incubator at 37 °C with 5% CO2.
# (§7) The test compound and the combination compound were dissolved in DMSO to give a 10 mM solution for later use. In the experiment, the compound was further diluted to the corresponding concentration according to the concentration designed in the experiment, and based on this concentration, serial gradient dilution was performed. Matrix study was performed at 8 or 7 dose concentrations of the test compound (the lowest dose concentration was 0, and other specific concentration values were shown in FIG. 1) and 7 or 8 dose concentrations of the combination compound (the lowest dose concentration was 0, and other specific concentration values were shown in FIG. 1). 10 µL of each of the diluted combination compound and test compound was added to the corresponding cell plate well, such that the final concentration of DMSO was 0.25%. The test compound and the cells were incubated in an incubator at 37 °C with 5% CO2 for another 7 days, Cell Titer Glo was added at 50 µL/well, and the luminescence value of each well was read using an Envision microplate reader.
# (§8) The luminescence value of the well containing only the cell medium was taken as the background (RLUbackground, corresponding cell survival rate to be 0%), the cell well containing only 0.25% DMSO without the compound was taken as the maximum signal (RLUDMSO, corresponding cell survival rate to be 100%), and the luminescence values of the remaining wells containing cells and compounds at different concentrations were taken as RLUsample. The survival rate of each cell well was calculated as follows: Survival rate (%) = (RLUsample−RLUbackground)/(RLUDMSO−RLUbackground) × 100% [formula]
# (§9) The interaction between drugs (synergistic, independent, or antagonistic) was statistically analyzed by the Bliss Independence model using Combenefit software (Bliss, C.I., Bacteriol. Rev., 1956, 20, 243-258). The model assumes that each drug acts independently. The theoretical expected action curve of the combination was calculated from the following equation: Bliss effect = effect A + effect B−effect A × effect B [formula] wherein effect A and effect B are the effects of drugs A and B alone at specific concentrations. […]
# DLD-1 BRCA2 (-/-) = experiment: as above; type: cell-based; conditions: combination with Olaparib (PARP inhibitor)
# Procedure: as §5, §6, §7, §8, §9
IC50 [1] [nM],IC50 [2] [nM],SMILES,IC50 (DLD-1 parent cells) [nM],Combined effect (MDA-MB-436),Combined effect (DLD-1 BRCA2 (-/-))
< 200,< 100,"COc1cnc(C)cc1-c1cc(C)ncc1C(=O)Nc1nc2ncc(-c3ccc(C#N)cc3)nc2s1 [Compound II, N-(6-(4-Cyanophenyl)thiazolo[4,5-b]pyrazin-2-yl)-5'-methoxy-2',6-dimethyl-[4,4'-bipyridinyl]-3-carboxamide]",≥ 10000,Synergistic,Synergistic
< 200,< 100,"COc1ccc(Cl)cc1-c1cc(C)ncc1C(=O)Nc1nc2ncc(-c3ccc(C4CC4)cn3)nc2s1 [Compound III, 4-(5-Chloro-2-methoxyphenyl)-N-[6-(5-cyclopropylpyridin-2-yl)thiazolo[4,5-b]pyrazin-2-yl]-6-methylpyridine-3-carboxamide]",,,Synergistic

SMILES,IC50 [1] [nM],IC50 [2] [nM],IC50 (DLD-1 parent cells) [nM],Combined effect (MDA-MB-436),Combined effect (DLD-1 BRCA2 (-/-))
"COc1ccc(Cl)cc1-c1cc(C)ncc1C(=O)Nc1nc2ncc(-c3ccc(C#N)cc3)nc2s1 [Compound I, 4-(5-Chloro-2-methoxyphenyl)-N-[6-(4-cyanophenyl)thiazolo[4,5-b]pyrazin-2-yl]-6-methylnicotinamide]",< 200,< 100,≥ 10000,Synergistic,Synergistic
